This is an account of results in US20260248799A1, “COMBINATIONS OF RETINALDEHYDE DEHYDROGENASE 1 (RALDH1) INHIBITORS AND IMMUNOSTIMULATORS AND METHODS USING SAME” (The Trustees of the University of Pennsylvania, priority 2023, published 2026).

Structures are written as SMILES.

One assay has as its target T1, Tachykinin NK1 (Homo sapiens, UniProt P25103).
T1 construct: Eurofins Cereps Panlabs (contract panel)
As to the kind of experiment: Safetyscreen: Tachykinin NK1. Type of assay: binding. Particulars: read-out: % Inh. Tachykinin NK1.

For assay [1], the target named is T2, Nicotinic Acetylcholine α1, Bungarotoxin (Homo sapiens, UniProt P02708+P07510+Q07001).
T2 construct: Eurofins Cereps Panlabs (contract panel)
Description: Safetyscreen: Nicotinic Acetylcholine α1. Particulars: read-out: % Inh. Nicotinic Acetylcholine α1, Bungarotoxin. Type of assay: binding.

The subject of the next assay is SNU398 cells. Description: RT-qPCR of Raldh1, Raldh2 and Raldh3 transcripts in SNU398 cells. It counts as cell-based, human. The conditions noted are these: SNU398, 24 hours. The method, then:
FIG. 21A: Transcript levels (RT-qPCR) of Raldh1, Raldh2 and Raldh3 in SNU398 cells treated with different concentrations of C86 or C91 for 24 hours. FIG. 21B: Homology modeling identifies differences in amino acid residues between human and murine RALDH1 at sites predicted to bind RALDH1-INH. FIG. 21C: SNU398 cells were treated with various concentrations of C86 or C91 for 24 hours. Cell viability was measured by flow cytometry (FCM) with 7-AAD staining (Y-axis indicates percentage of 7-AAD negative cells).
Total RNA from mouse tissue samples and in vitro cultured cells was isolated using GenElute Mammalian Total RNA Miniprep Kit (Sigma) following the manufacturer's protocol. Total RNA from human FFPE samples was isolated by using Quick-RNA FFPE Miniprep Kit (Zymo Research) using the manufacturer's protocol. 1000 ng of RNA was used for reverse transcription using High Capacity RNA to cDNA Kit (Life Technologies). The cDNA product was 10× diluted. 2.5 μL of this cDNA was used for qPCR for each sample. Three or more replicates were used for each reaction. […] Expression fold was calculated as 2^−(CT target gene−CT housekeeping gene). Quantitative PCRs were run on a Viia 7 real time PCR system (ThermoFisher). The following target and housekeeping genes were measured using the commercially available TaqMan probes (ThermoFisher): […]
Background: Quantitative PCR measures a nucleic acid by following its amplification.

For assay [2], the system named is Calcium Channel L-Type, Dihydropyridine. Description: Safetyscreen: Ca channel L-type, dihydropyridine. Particulars: 10 μM. Type of assay: binding, rat.
Assay [3] concerns the target T3, Serotonin (5-Hydroxytryptamine) 5-HT2A (Homo sapiens, UniProt P28223).
T3 construct: Eurofins Cereps Panlabs (contract panel)
Description: Safetyscreen: 5-HT2A. It counts as binding. Particulars: read-out: % Inh. Serotonin (5-Hydroxytryptamine) 5-HT2A.

The next assay has as its target T4, Androgen (Testosterone) (Homo sapiens, UniProt P10275).
T4 construct: Eurofins Cerep Panlabs (contract panel)
Description: Safetyscreen: Androgen. Type of assay: binding. Particulars: read-out: % Inh. Androgen (Testosterone).

A further assay deals with primary human monocytes. Description: Human monocyte DC differentiation with SNU398 cells or conditioned media. Type of assay: cell-based. The source says: FIGS. 22A-22E: RALDH1 inhibition blocks RA-mediated effects of HCC on monocyte differentiation. FIGS. 22A-22B: Circulating primary human monocytes from donors (FIG. 22A) or murine monocytes from bone marrow (FIG. 22B) were cocultured with SNU398 (Human HCC) cells or treated with SNU398-conditioned media (CM) in a DC differentiation system (GM-CSF and IL-4). Two-color histograms show the frequencies of DCs (CD11c^+CD1a^+ for human and CD11c^+MHCII^+ for mouse). The presence of SNU398 or its CM suppressed DC differentiation, which is reversed when SNU398 cells are treated with C86. Three or more independent experiments were performed with at least three replicates per experimental group. Unpaired t test, two-tailed. FIG. 22C: Huh7 (human HCC) cells were subcutaneously injected into flanks of NU/J mice. […] The frequencies of the host (murine) DCs (CD45^+F4/80^−CD11C^+MHCII-high) and macrophages (CD45^+F4/80^+) are quantified in a bar graph. […] Shown are the representative FCM plot (histogram) and DC quantification (bar graph). […]
Mouse monocytes were isolated from bone marrow as described herein and then cultured in RPMI 1640 (ThermoFisher Scientific, Cat #11875085) with 10% fetal bovine serum (GeminiBio, Cat #100-500). […] Cellular identity and function of differentiated monocytes was assessed by flow cytometry and quantitative PCR (qPCR).

The target in another assay is T5, Adrenergic α1D (Homo sapiens, UniProt P25100).
T5 construct: Eurofins Cerep Panlabs (contract panel)
Description: Safetyscreen: Adrenergic α1D. The conditions noted are these: read-out: % Inh. Adrenergic α1D. It counts as binding.

The test system of the next assay is Glutamate, AMPA. Description: Safetyscreen: Glutamate, AMPA. The conditions noted are these: 10 μM. Type of assay: binding, rat.
Another assay has as its target T6, Glucocorticoid (Homo sapiens, UniProt P04150).
T6 construct: purchased Eurofins Cereps Panlabs
As to the kind of experiment: Safetyscreen: Glucocorticoid. It counts as binding. Particulars: read-out: % Inh. Glucocorticoid.

A further assay deals with Phosphodiesterase PDE3. As to the kind of experiment: Safetyscreen: PDE3. It counts as biochemical, human. The conditions noted are these: 10 μM.

T4 sequence (P10275 whole entry): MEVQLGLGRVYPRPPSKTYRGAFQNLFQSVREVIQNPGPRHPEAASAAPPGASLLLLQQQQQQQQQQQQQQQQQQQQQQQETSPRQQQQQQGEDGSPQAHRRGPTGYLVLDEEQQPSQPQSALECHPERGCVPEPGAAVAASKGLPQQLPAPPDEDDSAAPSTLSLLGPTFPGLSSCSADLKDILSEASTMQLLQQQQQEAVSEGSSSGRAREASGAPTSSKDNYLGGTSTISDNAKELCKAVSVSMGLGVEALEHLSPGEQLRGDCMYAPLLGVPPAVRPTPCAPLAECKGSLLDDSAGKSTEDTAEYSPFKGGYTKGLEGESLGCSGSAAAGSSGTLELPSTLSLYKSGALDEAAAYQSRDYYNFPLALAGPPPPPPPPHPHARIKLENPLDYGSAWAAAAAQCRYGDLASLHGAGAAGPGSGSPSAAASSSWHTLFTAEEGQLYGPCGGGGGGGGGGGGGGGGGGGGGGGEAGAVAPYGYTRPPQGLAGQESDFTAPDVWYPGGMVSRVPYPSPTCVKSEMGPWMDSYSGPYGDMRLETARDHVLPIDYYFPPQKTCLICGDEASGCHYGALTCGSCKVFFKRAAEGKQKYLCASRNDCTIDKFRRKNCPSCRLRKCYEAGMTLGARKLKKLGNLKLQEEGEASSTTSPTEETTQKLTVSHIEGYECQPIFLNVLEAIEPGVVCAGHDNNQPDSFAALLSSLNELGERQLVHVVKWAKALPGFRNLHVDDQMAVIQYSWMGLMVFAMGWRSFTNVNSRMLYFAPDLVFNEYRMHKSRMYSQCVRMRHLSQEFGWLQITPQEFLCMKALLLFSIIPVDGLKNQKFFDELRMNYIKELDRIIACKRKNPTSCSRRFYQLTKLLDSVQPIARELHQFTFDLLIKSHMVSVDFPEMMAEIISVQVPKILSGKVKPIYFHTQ
T1 sequence (P25103 whole entry): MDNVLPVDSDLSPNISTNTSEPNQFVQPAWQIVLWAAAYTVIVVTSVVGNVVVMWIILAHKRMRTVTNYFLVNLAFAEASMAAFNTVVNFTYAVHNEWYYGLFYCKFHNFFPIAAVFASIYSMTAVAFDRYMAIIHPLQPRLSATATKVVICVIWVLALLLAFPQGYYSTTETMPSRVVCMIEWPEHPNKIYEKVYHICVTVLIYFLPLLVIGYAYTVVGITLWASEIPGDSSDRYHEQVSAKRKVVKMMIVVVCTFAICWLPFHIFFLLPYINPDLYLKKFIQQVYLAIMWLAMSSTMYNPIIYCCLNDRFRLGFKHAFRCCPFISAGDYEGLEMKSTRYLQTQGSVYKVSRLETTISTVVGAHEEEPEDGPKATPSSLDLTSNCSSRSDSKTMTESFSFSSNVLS
T2 sequence (P11230 24-501): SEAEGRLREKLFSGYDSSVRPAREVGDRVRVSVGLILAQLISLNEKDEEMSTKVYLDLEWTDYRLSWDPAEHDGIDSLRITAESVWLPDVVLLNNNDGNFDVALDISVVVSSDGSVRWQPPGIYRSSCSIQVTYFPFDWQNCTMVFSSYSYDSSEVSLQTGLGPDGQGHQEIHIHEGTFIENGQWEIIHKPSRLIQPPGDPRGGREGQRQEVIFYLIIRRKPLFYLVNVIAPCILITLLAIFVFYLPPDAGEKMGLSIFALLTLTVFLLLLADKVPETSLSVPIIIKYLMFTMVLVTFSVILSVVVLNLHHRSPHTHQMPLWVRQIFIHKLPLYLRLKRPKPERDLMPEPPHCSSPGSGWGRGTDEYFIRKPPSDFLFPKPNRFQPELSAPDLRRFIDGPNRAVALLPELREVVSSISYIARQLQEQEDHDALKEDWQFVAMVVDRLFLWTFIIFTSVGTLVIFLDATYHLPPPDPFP
T2 sequence (P02708 21-457): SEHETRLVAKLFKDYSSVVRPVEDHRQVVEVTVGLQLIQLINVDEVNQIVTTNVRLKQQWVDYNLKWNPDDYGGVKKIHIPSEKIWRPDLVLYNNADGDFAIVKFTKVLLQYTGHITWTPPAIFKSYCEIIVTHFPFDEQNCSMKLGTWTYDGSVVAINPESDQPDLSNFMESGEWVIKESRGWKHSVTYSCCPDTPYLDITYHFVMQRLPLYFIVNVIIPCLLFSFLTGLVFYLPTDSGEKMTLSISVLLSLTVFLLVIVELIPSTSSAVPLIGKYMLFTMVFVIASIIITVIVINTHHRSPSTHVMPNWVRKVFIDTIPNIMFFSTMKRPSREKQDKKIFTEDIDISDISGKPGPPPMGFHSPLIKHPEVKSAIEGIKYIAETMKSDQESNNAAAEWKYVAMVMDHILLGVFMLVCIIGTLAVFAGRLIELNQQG
T2 sequence (Q07001 22-517): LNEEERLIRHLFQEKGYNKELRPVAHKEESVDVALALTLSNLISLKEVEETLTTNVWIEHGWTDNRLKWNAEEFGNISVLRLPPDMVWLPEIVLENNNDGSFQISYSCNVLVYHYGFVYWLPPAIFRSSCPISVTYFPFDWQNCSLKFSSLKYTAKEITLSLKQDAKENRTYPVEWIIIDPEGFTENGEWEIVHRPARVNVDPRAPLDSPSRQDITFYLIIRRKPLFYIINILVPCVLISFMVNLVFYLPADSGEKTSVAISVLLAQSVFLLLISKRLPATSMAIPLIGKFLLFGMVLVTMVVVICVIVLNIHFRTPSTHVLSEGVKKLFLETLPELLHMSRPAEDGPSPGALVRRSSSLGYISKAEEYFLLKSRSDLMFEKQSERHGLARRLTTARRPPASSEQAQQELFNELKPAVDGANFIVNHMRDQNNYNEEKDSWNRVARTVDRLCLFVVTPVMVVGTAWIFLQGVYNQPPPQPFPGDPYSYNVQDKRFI
T2 sequence (P07510 23-517): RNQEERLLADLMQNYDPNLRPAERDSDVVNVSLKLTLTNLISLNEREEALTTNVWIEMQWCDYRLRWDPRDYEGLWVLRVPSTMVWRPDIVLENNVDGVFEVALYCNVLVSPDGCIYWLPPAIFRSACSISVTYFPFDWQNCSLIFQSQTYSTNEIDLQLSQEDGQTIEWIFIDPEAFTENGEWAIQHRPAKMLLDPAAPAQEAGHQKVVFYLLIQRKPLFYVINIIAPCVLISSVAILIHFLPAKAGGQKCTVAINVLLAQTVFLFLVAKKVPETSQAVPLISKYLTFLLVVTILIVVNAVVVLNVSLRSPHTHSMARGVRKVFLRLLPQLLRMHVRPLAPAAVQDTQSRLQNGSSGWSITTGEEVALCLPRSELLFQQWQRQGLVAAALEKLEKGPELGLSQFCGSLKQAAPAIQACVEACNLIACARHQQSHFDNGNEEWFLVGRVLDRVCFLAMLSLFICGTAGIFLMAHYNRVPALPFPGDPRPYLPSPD
T5 sequence (P25100 whole entry): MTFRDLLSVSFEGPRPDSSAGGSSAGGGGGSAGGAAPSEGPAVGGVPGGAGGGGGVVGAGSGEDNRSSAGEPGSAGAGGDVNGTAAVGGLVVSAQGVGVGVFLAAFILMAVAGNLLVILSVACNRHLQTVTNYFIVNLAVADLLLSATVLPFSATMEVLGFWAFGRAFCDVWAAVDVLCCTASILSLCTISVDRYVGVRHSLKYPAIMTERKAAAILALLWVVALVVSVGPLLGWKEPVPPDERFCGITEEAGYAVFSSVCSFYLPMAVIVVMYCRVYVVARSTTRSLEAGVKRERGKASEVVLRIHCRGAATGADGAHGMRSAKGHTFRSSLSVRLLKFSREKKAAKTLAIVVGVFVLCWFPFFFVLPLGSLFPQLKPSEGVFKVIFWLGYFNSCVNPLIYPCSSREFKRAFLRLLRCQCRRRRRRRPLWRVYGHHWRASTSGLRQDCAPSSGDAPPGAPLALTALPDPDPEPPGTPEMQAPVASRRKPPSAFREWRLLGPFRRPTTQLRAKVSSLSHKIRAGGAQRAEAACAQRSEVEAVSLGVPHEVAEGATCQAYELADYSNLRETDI
T3 sequence (P28223 whole entry): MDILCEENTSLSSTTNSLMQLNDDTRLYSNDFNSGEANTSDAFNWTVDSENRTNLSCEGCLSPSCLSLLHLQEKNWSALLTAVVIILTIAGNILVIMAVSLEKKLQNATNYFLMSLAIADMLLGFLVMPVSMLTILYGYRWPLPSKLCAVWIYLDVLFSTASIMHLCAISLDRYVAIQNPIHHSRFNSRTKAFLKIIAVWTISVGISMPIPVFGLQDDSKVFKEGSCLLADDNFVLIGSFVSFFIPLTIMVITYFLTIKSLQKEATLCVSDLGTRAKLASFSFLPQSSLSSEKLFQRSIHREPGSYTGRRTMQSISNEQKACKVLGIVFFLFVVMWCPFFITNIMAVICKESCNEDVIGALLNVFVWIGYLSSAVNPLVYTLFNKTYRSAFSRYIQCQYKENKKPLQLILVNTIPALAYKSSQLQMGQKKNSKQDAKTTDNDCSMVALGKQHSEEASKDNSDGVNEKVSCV

As to `CS(=O)(=O)N1CCN(C(=O)c2cnc3ccc(F)cc3c2N2CCC(C#N)(c3ccccc3)CC2)CC1` [Compound C-86, 1-(6-fluoro-3-(4-(methylsulfonyl)piperazine-1-carbonyl)quinolin-4-yl)-4-phenylpiperidine-4-carbonitrile], the inhibition at 10 µM on Tachykinin NK1 was 37%; in [1] it was 2%; in assay [3], 36%; on Androgen (Testosterone), 16%; on Adrenergic α1D it was 6%; at Glucocorticoid, 9%. Also, in the assay with SNU398 cells, the “transcription of other RALDH isozymes” value was “did not lead to compensatory increases in transcription”. The “% Inh. Calcium Channel L-Type, Dihydropyridine” value in assay [2] is recorded as 23%. For the same compound, the “potential of monocytes to differentiate into DCs” value in the assay on primary human monocytes (direct treatment of monocytes in vitro) is “did not alter”. The “suppression of DC differentiation by HCC cells or CM” value with primary human monocytes (human monocytes, HCC cells pre-treated) was “reversed”. Further, the “% Inh. Glutamate, AMPA” value in the assay on Glutamate, AMPA turned out to be 0%. For the same compound, the “% Inh. Phosphodiesterase PDE3” value in the assay on Phosphodiesterase PDE3 is given as −23%.
